For this assay, the target named is Coagulation factor XI (Homo sapiens, UniProt P03951). Description: Factor XIa Assay: The effectiveness of a compound of the present invention as an inhibitor of Coagulation Factor XIa can be determined using a relevant purified serine protease, and an appropriate synthetic substrate. The rate of hydrolysis of the chromogenic or fluorogenic substrate by the relevant serine protease was measured both in the absence and presence of compounds of the present invention. Assays were conducted at rt or at 37° C. […] A decrease in the rate of fluorescence change in the presence of inhibitor is indicative of enzyme inhibition. Such methods are known to one skilled in the art. […] Times required to achieve equilibration between enzyme and inhibitor were determined in control experiments. Initial velocities of product formation in the absence (Vo) or presence of inhibitor (Vi) were measured. Assuming competitive inhibition, and that unity is negligible compared Km/[S], [I]/e, and [I]/e (where [S], [I], and e respectively represent the total concentrations, of substrate, inhibitor and enzyme), the equilibrium constant (Ki) for dissociation of the inhibitor from the enzyme can be obtained from the dependence of Vo/Vi on [I] shown in the following equation.
Chain of Coagulation factor XI (P03951 19-387 limits assumed): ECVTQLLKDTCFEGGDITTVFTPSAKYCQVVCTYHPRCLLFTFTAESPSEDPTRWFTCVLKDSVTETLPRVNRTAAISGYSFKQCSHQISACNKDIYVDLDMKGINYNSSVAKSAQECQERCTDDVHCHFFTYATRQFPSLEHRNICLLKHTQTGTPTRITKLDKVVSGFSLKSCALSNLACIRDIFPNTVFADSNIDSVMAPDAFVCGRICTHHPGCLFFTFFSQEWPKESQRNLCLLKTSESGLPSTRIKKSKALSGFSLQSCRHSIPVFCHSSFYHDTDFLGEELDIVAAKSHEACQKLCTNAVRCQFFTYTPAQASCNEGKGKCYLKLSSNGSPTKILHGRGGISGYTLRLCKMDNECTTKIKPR
Chain of Coagulation factor XI (P03951 388-625 limits assumed): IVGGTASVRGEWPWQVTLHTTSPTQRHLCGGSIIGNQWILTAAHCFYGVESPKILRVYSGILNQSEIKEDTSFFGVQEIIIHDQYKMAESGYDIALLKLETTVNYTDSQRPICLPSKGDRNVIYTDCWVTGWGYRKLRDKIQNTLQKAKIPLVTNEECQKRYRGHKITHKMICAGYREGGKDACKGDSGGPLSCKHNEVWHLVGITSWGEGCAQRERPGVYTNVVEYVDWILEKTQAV

Molecules are shown by their SMILES.

For the compound `COC(=O)Nc1ccc2c(c1)NC(=O)CCCCC(c1ccc(-c3c(F)cccc3OC(F)F)cn1)c1cccc-2c1` (stereo unspecified), the inhibition constant Ki is greater than 875 nM.
In the case of `COC(=O)Nc1ccc2c(c1)NC(=O)CCCCC(c1ccc(-c3cc(Cl)ccc3-n3cc(C(F)F)nn3)cn1)c1cccc-2c1` (stereo unspecified) it was 9.2 nM; in that of `COC(=O)Nc1ccc2c(c1)NC(=O)CCCCC(c1ccc(-c3cc(Cl)ccc3-n3cc(C#N)cn3)cn1)c1cccc-2c1` (stereo unspecified), 211 nM.
For `COC(=O)Nc1ccc2c(c1)NC(=O)CCCCC(c1ccc(-c3cc(Cl)ccc3C(F)(F)F)cn1)c1cccc-2c1` (stereo unspecified) the value was greater than 875 nM; for `COC(=O)Nc1ccc2c(c1)NC(=O)CCCCC(c1ccc(-c3cc(Cl)ccc3OC(F)F)cn1)c1cccc-2c1` (stereo unspecified), 181 nM.
For `COC(=O)Nc1ccc2c(c1)NC(=O)CCCCC(c1ccc(-c3cc(Cl)ccc3OC(F)(F)F)cn1)c1cccc-2c1` (stereo unspecified) the value was 399 nM; for `COC(=O)Nc1ccc2c(c1)NC(=O)CCCCC(c1ccc(-c3cc(Cl)ccc3-n3cc(C4CC4)nn3)cn1)c1cccc-2c1` (stereo unspecified), 137 nM.
`COC(=O)Nc1ccc2c(c1)NC(=O)CCCCC(c1ccc(-c3c(-n4cc(C(F)(F)F)nn4)ccc(Cl)c3F)cn1)c1cccc-2c1` (stereo unspecified): the Ki was 2.02 nM.
Consider `COC(=O)Nc1ccc2c(c1)NC(=O)CCCCC(c1ccc(-c3cc(Cl)ccc3-n3cc(C(F)(F)F)nn3)cn1)c1cccc-2c1` (stereo unspecified), for which the Ki stood at 18.3 nM.
For `COC(=O)Nc1ccc2c(c1)NC(=O)CCCCC(c1ccc(-c3cc(Cl)ccc3-c3cnco3)cn1)c1cccc-2c1` (stereo unspecified), the inhibitory constant (Ki) came to 259 nM.
For `COC(=O)Nc1ccc2c(c1)NC(=O)CCCCC(c1ccc(-c3cc(Cl)ccc3-n3cc(Cl)nn3)cn1)c1cccc-2c1` (stereo unspecified) the value was 12 nM; for `COC(=O)Nc1ccc2c(c1)NC(=O)CCCCC(c1ccc(-c3cc(Cl)ccc3-n3cc(C(F)(F)F)cn3)cn1)c1cccc-2c1` (stereo unspecified), 708 nM.
For `COC(=O)Nc1ccc2c(c1)NC(=O)CCCCC(c1ccc(-c3cc(Cl)ccc3C#N)cn1)c1cccc-2c1` (stereo unspecified) the value was 41 nM.
For `COC(=O)Nc1ccc2c(c1)NC(=O)CCCCC(c1ccc(-c3cc(Cl)ccc3-c3cnn(C(F)F)c3)cn1)c1cccc-2c1` (stereo unspecified) the value was 640 nM.
`COC(=O)Nc1ccc2c(c1)NC(=O)CCCCC(c1ccc(-c3c(-n4cnnn4)ccc(Cl)c3F)cn1)c1cccc-2c1` (stereo unspecified): the Ki amounted to 0.24 nM.
For `COC(=O)Nc1ccc2c(c1)NC(=O)CCCCC(c1ccc(-c3cc(F)ccc3-n3cnnn3)cn1)c1cccc-2c1` (stereo unspecified) the value was 7 nM.

For the origin of these results see ChEMBL document CHEMBL5726611, “Factor XIA inhibitors” (2019).
